Reference: PMC6212778, “Site-specific amino acid substitution in dodecameric peptides determines the stability and unfolding of c-MYC quadruplex promoting apoptosis in cancer cells” (Nucleic Acids Research, 2018)
“Also recorded” adds a separate entry of the source.

Tests used:
Assay type in all cases: cell-based, human
[1] = test system: RNAPII at c-MYC promoter in MCF-7 cells; assay: ChIP, RNA polymerase II occupancy at c-MYC promoter; conditions: MCF-7, 24 h, ChIP-qPCR versus IgG control
Protocol: Chromatin immunoprecipitation studies are conducted to monitor the promoter occupancies of different transcription factors (Sp1, NM23-H2 and Nucleolin) and RNA polymerase II (RNAPII) on the region encompassing c-MYC-NHE III1 ([69]). We have grown MCF-7 cells in 10-cm^2 culture flask at a density of 1 × 10^6 cells per well and treated with the synthetic peptides (FK13, KR12A, KR12B, and KR12C) for 24 hours. Cells are cross-linked with 1% formaldehyde at room temperature for 10 min and the reaction is stopped by 0.125 M glycine at room temperature for 10 min. Fixed cells are lysed and sonicated to yield DNA fragments of 200–500 bp. ChIP-grade antibodies (NM23-H2 (L-15) Antibody (sc-14790, Santa Cruz), and Anti-Nucleolin antibody [4E2]-ChIP Grade (Abcam)), Anti Sp1 antibody (Sigma), and Rpb1 (RNAPII subunit b1) CTD (C-terminal domain) 4H8 antibody are added to the sonicated chromatin and incubated overnight at 4°C. Then, 10 μl protein A magnetic beads (Dynal, Invitrogen), previously washed in RIPA buffer are added to the samples and bead–protein complexes are washed thrice with RIPA buffer and twice with TE buffer. The genomic DNA is eluted for 2 h at 68°C in complete elution Buffer (20 mM Tris, pH 7.5, 5 mM EDTA, 50 mM NaCl, 1% SDS and 50 μg/ml proteinase K) and further combined with the DNA eluted from second elution for 10 min at 68°C in 100 μl of elution buffer (20 mM Tris, pH 7.5, 5 mM EDTA and 50 mM NaCl). ChIP-isolated DNA is purified using MinElute Purification kit (Qiagen) and is amplified by PCR (Polymerase Chain Reaction) reactions using forward and reverse primers ([70]) (Supplementary Table S4) specific to the quadruplex-enriched regions at c-MYC promoter and Phusion® High-Fidelity PCR Kit (NEB). Anti-rabbit IgG is employed for mock immunoprecipitation (Negative control).

[2] = test system: c-MYC transcripts in MCF-7 cells; assay: Real time PCR of c-MYC transcripts; conditions: MCF-7, 24 h, qPCR normalised to GAPDH
Protocol: To inspect the transcription inhibitory roles of peptides in c-MYC, BCL-2, VEGF-A and KRAS oncogenes having putative quadruplexes in their promoters, we performed real time polymerase chain reactions. MCF-7 cells are sub-cultured into 6-well microtiter plates at a density of 1 × 10^6 cells per well and treated with different concentrations of peptides (FK13, KR12A, KR12B and KR12C) for 24 hours. Total RNA is isolated from both untreated and treated cells using TRIzol method (Invitrogen) as per manufacturer's instructions. 2 μg of total RNA is processed for cDNA synthesis and reverse transcribed using a Super MuLV RT Kit (Biobharati Life Sciences Pvt. Ltd.). Real time PCR is performed using Maxima SYBR Green/ROX qPCR Master Mix (2×) (Thermo-Scientific) as per manufacturer's protocol. Housekeeping gene, GAPDH is used as an internal control to normalize the variability in c-MYC mRNA expression levels (Supplementary information Section 1). PCR primers are designed using Primer-BLAST, NCBI, and analyzed in OligoAnalyser 3.1-IDT (Supplementary Table S2).

[3] = test system: VEGF-A promoter (VEGF-A-GQ) in MCF-7 cells; assay: Dual-luciferase assay, VEGF-A promoter with VEGF-A-GQ; conditions: MCF-7, 24 h, peptide 0–60 μM
Protocol: MCF-7 cells are sub-cultured into 24-well microtiter plates at a cell density of 1 × 10^5 cells/well. Reporter constructs (c-MYC, BCL-2, KRAS and VEGF-A) (500 ng) with and/or without the G-quadruplex scaffolds triggering the expression of Renilla luciferase are co-transfected with 50 ng of pGL3-control vectors (Promega) (used as internal control), encoding firefly luciferase into MCF-7 cells using Lipofectamine® 3000 transfection reagent (Thermo-Fisher Scientific) following manufacturer's recommendations (Supplementary information Section 1). Twenty four hours post-transfection, cells are treated with peptides (FK13, KR12A, KR12B, KR12C, KR12D and KR12E) at an increasing concentration gradient.
Dual-luciferase assays are performed to examine the intracellular selectivity of peptides for c-MYC quadruplex isomers (Pu27, Myc22 and Pu19) over other oncogenic quadruplexes (BCL-2, VEGF-A and KRAS) of different topologies. The role of peptide-quadruplex complex in oncogene promoter activation is investigated in contrast to the GQ-null promoter constructs into MCF-7 cells ([67]). After 24 h of peptide treatment, cells are washed and lysed into 100 μl 1× Passive lysis buffer (PLB) for 15 min at room temperature. Renilla and firefly Luciferase activities in 25 μl lysate are quantified by Dual-Luciferase® reporter assay system (Promega) as per manufacturer's recommendations. Renilla luciferase enzyme activity is normalized to that of the firefly luciferase activity and luminescence of the peptide-treated samples are normalized to the untreated ones, which yield the fold induction values for Renilla activities by different quadruplex structures in presence and absence of synthetic peptides. Luminescence of each sample is detected in GloMax® 20/20 Single-Tube Luminometer (Promega) in triplicates and averaged from three independent experiments.

Substance | RNAPII occupancy at c-MYC promoter [1] | c-MYC transcription [2] | VEGF-A promoter activity [3] | c-MYC transcription, fold repression [2] [fold]
N – FKRIVQRIKDFLR – C [FK13] | did not significantly altered | did not downregulate c-MYC transcription | significantly downregulate; also recorded: strongly inhibited | –
N – KRIVKLIKKWLR – C [KR12C] | significantly depleted | – | no significant impact | ~5
N – KRIVKRIKKWLR – C [KR12B, dodecameric mutant peptide derived from FK13 / LL37] | significantly depleted | – | strongly inhibited | ~5
N – KRIVQRIKKWLR – C [KR12A, dodecameric mutant peptide derived from FK13 / LL37] | depleted RNAPII occupancy | downregulated c-MYC transcription in a dose-dependent manner | significantly downregulate | –
